Measurements reported in US12459951B2, “Compounds that interact with RAS superfamily proteins for treatment of cancers, inflammatory diseases, rasopathies, and fibrotic disease” (SHY Therapeutics, LLC, priority 2022, dated 2025).

Assays:
MAPK p38 phosphorylation = assay: MAPK p38 Activation Assay (western blot), Panc-1; assay type: cell-based, human; conditions: at 10 μM, Panc-1 pancreatic cancer cell line; starred symbols = activation
Method: Protocol for MAPK p38 Activation Assay
This assay is referred to as the “MAPK p38 Activation Assay” throughout this application.
Cell lines: Human tumor-derived pancreatic cancer cell line Panc-1 (expressing KRas G12D mutant) was purchased from American Type Culture Collection and grown in complete DMEM-High Glucose medium, supplemented with penicillin (100 U/mL), streptomycin (100 μg/mL), and 10% heat-inactivated FBS at 37° C. in a humidified incubator with 5% CO2.
Method 1: Cells were plated at 350000 cells/well density in a 12-well plate, allowed 3 hours to adhere to the plate, then starved in the appropriate medium in the presence of 0.5% FBS overnight. The small molecules to be tested were added to the cells in the final concentration of 10 μM in the presence of 0.3% DMSO for 6 hours incubation at 37° C. For IC50 value determination, serial dilutions of compounds were added to cells under the same conditions. Next, cells were stimulated with 1.5 ng/ml EGF for 15 minutes then cells were lysed with lysis buffer containing 1% Triton X-100, EDTA, and Halt™ Protease & Phosphatase Inhibitor Cocktail (Thermo Scientific). Protein concentration was assessed by BCA protein assay (Thermo Scientific). Phosphorylation level of MAPK p38 was determined by western blot.
Method 2: Cells were plated at 350000 cells/well density in a 12-well plate in 10% FBS. The next day small molecules to be tested were added to the cells in the final concentration of 10 μM in the presence of 0.3% DMSO for 6 hours incubation at 37° C. For IC50 value determination, serial dilutions of compounds were added to cells under the same conditions. Next, cells were lysed with lysis buffer containing 1% Triton X-100, EDTA, and Halt™ Protease & Phosphatase Inhibitor Cocktail (Thermo Scientific). Protein concentration was assessed by BCA protein assay (Thermo Scientific). Phosphorylation level of MAPK p38 was determined by western blot.
Western blot protocol: Equal amounts of protein (15-50 μg) were separated by SDS-PAGE and transferred to nitrocellulose membranes (Invitrogen by Thermo Fisher Scientific). The membrane was stained with Ponceau S Stain (Boston BioProducts) to verify uniform protein loading. Membranes were blocked with 10% milk and phosphorylation levels of MAPK p38 were assessed by incubating overnight at 4° C. with the following antibody: Phospho-p38 MAPK (Thr180/Tyr182), from Cell Signaling Technology. Then the membranes were incubated with HRP-conjugated secondary antibody (Jackson Immunoresearch, West Grove, PA). Bands were incubated in Amersham ECL Prime Western Blotting Detection Reagent (GE Healthcare) and visualized using the ChemiDoc MP imaging system (Bio-Rad).

[1] = test system: NCI-H358 (expressing KRas G12C mutant) tumors; assay: In vivo efficacy in NCI-H358 (G12C) model; parameters: species or system Athymic Nude-Foxn1 nu mice; conditions: daily dose 50 mg/kg
Method: Biological Example 8: In Vivo Efficacy of Compound 6 in NCI-H358 (G12C) Model
Cell lines: Human tumor-derived non-small cell lung cancer cell lines NCI-H358 (expressing KRas G12C mutant was grown in RPMI-1640 Medium, ATCC 30-2001, supplemented with 10% fetal bovine serum (FBS) and Penicillin/Streptomycin 100U/ml (Lonza BioWhittaker, Morrisville, NC). Cells were trypsinized, washed in sterile PBS, counted, and resuspended in a 1:1 mix PBS/HC Matrigel (Corning, Glendale, AZ) at a concentration of 25×10^6/ml. Cells were kept on ice until injection.
The right flank of Athymic Nude-Foxn1 nu mice (The Jackson Laboratory, Harbor, ME) was injected subcutaneously with 5×10^6 cells in 200 μl of sterile PBS/Matrigel solution. Tumor mass was first measured 4 days after injection and mice were randomized on the basis of these measurements. Treatment was begun when tumors reached 150-200 mm^3, ^˜5-8 days after injection. Compound 6 was formulated in 20% captisol (50 mM citrate buffer, PH 5.0), and mice received either daily dose of vehicle or 50 mg/kg body weight of the formulated compound 6. Tumors were measured using digital calipers and volume (v) was calculated using the formula V=(W(2)×L)/2 where V is tumor volume, W is tumor width, and L is tumor length. Mice were housed in accordance with IACUC guidelines. The calculated Tumor Growth Inhibition (TGI) was 80%.

## Cc1c(-c2ccn(C(C)C)n2)cn2nc(-c3ccccn3)nc(O)c12 [Compound 8, 6-(1-Isopropyl-1H-pyrazol-3-yl)-5-methyl-2-(pyridin-2-yl)pyrrolo[2,1-f][1,2,4]triazin-4-ol]
MAPK p38 phosphorylation
  % inh of MAPK p38 in Panc-1: H* (H* ≥ 100% activation)

## Cc1c(-c2ccn(C(C)C)n2)cn2nc(-c3nccn3C)nc(Nc3nccn3C)c12 [Compound 93, 6-(1-Isopropyl-1H-pyrazol-3-yl)-5-methyl-N,2-bis(1-methyl-1H-imidazol-2-yl)pyrrolo[2,1-f][1,2,4]triazin-4-amine]
MAPK p38 phosphorylation
  % inh of MAPK p38 in Panc-1: H* (H* ≥ 100% activation)

## COc1cc(Nc2nc(-c3nccn3C)nn3cc(-c4ccn(C(C)C)n4)c(C)c23)ncn1 [Compound 6, 6-(1-Isopropyl-1H-pyrazol-3-yl)-N-(6-methoxypyrimidin-4-yl)-5-methyl-2-(1-methyl-1H-imidazol-2-yl)pyrrolo[2,1-f][1,2,4]triazin-4-amine]
MAPK p38 phosphorylation
  % inh of MAPK p38 in Panc-1: E* (E* = 1-30% activation)
[1]; NCI-H358 subcutaneous tumors in nude mice, 20% captisol formulation
  Tumor Growth Inhibition (TGI): 80%
[1]; NCI-H358 tumor-bearing nude mice
  Weight loss: No weight loss was detected

## CO[C@H]1CC[C@@H](Nc2nc(-c3ccccn3)nn3cc(-c4ccn(C(C)C)n4)c(C)c23)C1 (racemic) [Compound 9, rac 6-(1-Isopropyl-1H-pyrazol-3-yl)-N-((1R,3S)-3-methoxycyclopentyl)-5-methyl-2-(pyridin-2-yl)pyrrolo[2,1-f][1,2,4]triazin-4-amine]
MAPK p38 phosphorylation
  % inh of MAPK p38 in Panc-1: G* (G* = 75-99% activation)
